Measurements as given in patent US20040092568A1, “Methods for the treatment, prevention and management of macular degeneration” (priority 2002, published 2004).

What was measured:
[1] = tested on: patients with macular degeneration; experiment: Macular degeneration clinical study (adjuvant to verteporfin photodynamic therapy); assay type: in vivo; conditions: about 300 mg/day for 20 weeks as adjuvant to verteporfin photodynamic therapy
Protocol: Forty patients with macular degeneration are divided into two groups. The first group receives conventional treatment for closing the leaking choroidal vessels (characteristic of this disease) by photodynamic therapy with verteporfin (see for example Ophthalmol. 117:1329-1345 (1999). The second group receives the same conventional therapy with verteporfin with 1-(5-(1H-1,2,4-triazol-5-yl)(1H-indazol-3-yl))-3-(2-piperidylethoxy)benzene at about 300 mg/day as an adjuvant for 20 weeks.
The first group, without 1-(5-(1H 1,2,4-triazol-5-yl)( 1 H-indazol-3-yl))-3-(2-piperidylethoxy)benzene, however will experience progressive reperfusion of the ablated vessels several weeks after treatment. Progressive visual loss follows which requires the photodynamic therapy to be repeated.

[2] = Brain-blood plasma distribution in vivo; set-up: species or system Sprague-Dawley rats; conditions: rat, 10 mg/kg intravenously, 2 hr post-dose
Protocol: 5-Amino-anthra(9,1-cd)isothiazol-6-one was administered intravenously (10 mg/kg) into the veins of Sprague-Dawley rats. After 2 hr, blood samples were obtained from the animals and their vascular systems were perfused with approximately 100 mL of saline to rid their brains of blood. The brains were removed from the animals, weighed, and homogenized in a 50 mL conical tube containing 10 equivalents (w/v) of methanol/saline (1:1) using a Tissue Tearer (Fischer Scientific). The homogenized material was extracted by adding 600 μL of cold methanol to 250 μL of brain homogenate vortexed for 30 sec and subjected to centrifugation for 5 min. After centrifugation, 600 μL of the resulting supernatant was transferred to a clean tube and evaporated at room temperature under reduced pressure to provide a pellet. […] The brain homogenate analysis samples, plasma analysis samples, and standard analysis samples were analyzed and compared using HPLC by injecting 100 μL of a sample onto a 5 μm C-18 Luna column (4.6 mm×150 mm, commercially available from Phenomenex of Torrance, Calif.) and eluting at 1 mL/min with a linear gradient of 30% aqueous acetonitrile containing 0.1% trifluoroacetic acid to 90% aqueous acetonitrile containing 0.1% trifluoroacetic acid over 8 minutes and holding at 90% aqueous acetonitrile containing 0.1 % trifluoroacetic acid for 3 min. with absorbance detection at 450 nm. […]

[3] = Solubility in aqueous media; assay type: physicochemical
[4] = tested on: rat ventral mesencephalan neurons; experiment: [3H]Dopamine cell culture assay (6-OHDA neurotoxicity); assay type: cell-based; conditions: 6-OHDA 30 μM, uptake 22 hours later
Protocol: Cultures of dopaminergic neurons were prepared according to a modification of the procedure described by Raymon and Leslie (J. Neurochem. 62:1015-1024, 1994). Time-mated pregnant rats were sacrificed on embyronic day 14-15 (crown rump length 11-12 mm) and the embryos removed by cesarean section. The ventral mesencephalon, containing the dopaminergic neurons, was dissected from each embryo. Tissue pieces from approximately 48 embryos were pooled and dissociated both enzymatically and mechanically. An aliquot from the resulting cell suspension was counted and the cells were plated in high glucose DMEM/F12 culture medium with 10% fetal bovine serum at a density of 1×10^5 cells/well of a Biocoat poly-D-lysine-coated 96-well plate. The day following plating was considered 1 day in vitro (DIV). Cells were maintained in a stable environment at 37° C., 95% humidity, and 5% CO2. A partial medium change was performed at 3 DIV. […]
[^3H]Dopamine uptake is used as a measure of the health and integrity of dopaminergic neurons in culture (Prochiantz et al., PNAS 76: 5387-5391, 1979). […] Briefly, cells treated with 6-OHDA in the presence and absence of 5-amino-anthra(9, 1-cd)isothiazol-6-one were assessed in the uptake assay 22 hrs after exposure to 6-OHDA. […] Radioactivity was removed and the cultures were washed 3x with ice cold PBS. […]

SMILES | effect on neovascular cascade / duration of photodynamic therapy effect [1] | brain-drug concentration [2] | solubility in aqueous media [3] | protection of dopaminergic neurons from 6-OHDA ([3H]dopamine uptake) [4]
c1cc(OCCC2CCCCN2)cc(-c2n[nH]c3ccc(-c4ncn[nH]4)cc23)c1 (stereo not shown) [1-(5-(1H-1,2,4-triazol-5-yl)(1H-indazol-3-yl))-3-(2-piperidylethoxy)benzene] | neovascular cascade is sufficiently hindered |  |  | 
Nc1ccc2snc3c2c1C(=O)c1ccccc1-3 [5-amino-anthra(9,1-cd)isothiazol-6-one] |  | approximately 65 nmole/g | limited solubility | protects rat ventral mesencephalan neurons from the toxic effects of 6-OHDA
